One block for each molecule: values may come before it.
What was measured:
human diamine oxidase = biological target: T1, human diamine oxidase (Homo sapiens, UniProt P19801); assay: inhibition of human diamine oxidase; conditions: qualitative statement
T1 sequence (P19801 20-751): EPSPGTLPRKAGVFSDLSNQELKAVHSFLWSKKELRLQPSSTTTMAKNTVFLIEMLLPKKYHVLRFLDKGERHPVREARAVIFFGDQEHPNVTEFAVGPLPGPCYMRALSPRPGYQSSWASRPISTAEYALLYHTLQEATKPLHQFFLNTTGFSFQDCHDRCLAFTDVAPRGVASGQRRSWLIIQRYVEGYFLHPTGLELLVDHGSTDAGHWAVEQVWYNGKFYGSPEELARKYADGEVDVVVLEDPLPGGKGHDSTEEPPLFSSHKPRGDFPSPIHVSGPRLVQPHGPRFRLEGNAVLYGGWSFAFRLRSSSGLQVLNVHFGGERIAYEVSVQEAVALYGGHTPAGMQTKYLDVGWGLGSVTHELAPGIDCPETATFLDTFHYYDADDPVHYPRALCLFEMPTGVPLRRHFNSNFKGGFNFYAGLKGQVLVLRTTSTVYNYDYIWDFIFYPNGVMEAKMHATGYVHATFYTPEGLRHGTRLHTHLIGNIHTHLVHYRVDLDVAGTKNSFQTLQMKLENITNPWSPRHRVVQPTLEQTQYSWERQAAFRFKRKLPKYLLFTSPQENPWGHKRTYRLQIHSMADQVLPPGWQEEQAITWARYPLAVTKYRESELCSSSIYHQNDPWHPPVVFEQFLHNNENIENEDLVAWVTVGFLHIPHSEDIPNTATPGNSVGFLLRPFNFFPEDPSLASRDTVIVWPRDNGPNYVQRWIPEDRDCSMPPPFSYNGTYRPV

SGLT2 versus SGLT1 = conditions: Grempler et al. 2012; cited from earlier work
[1] = tested on: patients with type 2 diabetes mellitus; conditions: patients with type 2 diabetes mellitus at high risk for cardiovascular events; Zinman et al. 2015; cited from earlier work
HbA1c = conditions: metformin on its own, in the diabetic; cited from earlier work

inhibitory activity against human diamine oxidase (human diamine oxidase): low inhibitory activity
SMILES: CC(C)(C)NC(=O)c1ccc(OC/C(=C/F)CN)cc1 [Compound 23, (E)-4-(2-(Aminomethyl)-3-fluoroallyloxy)-N-tert-butylbenzamide]

SMILES: OC[C@H]1O[C@@H](c2ccc(Cl)c(Cc3ccc(O[C@H]4CCOC4)cc3)c2)[C@H](O)[C@@H](O)[C@@H]1O [empagliflozin]
selectivity SGLT2 versus SGLT1 (SGLT2 versus SGLT1): high selectivity | rates of the primary composite cardiovascular outcome and of death from any cause [1]: significantly lower rates

SMILES: CN(C)C(=N)N=C(N)N [metformin]
average improvement in the HbA1c value (HbA1c): 1.0-1.5%
